The structures appear in SMILES notation. Like-named read-outs stand apart in the source and are kept apart here.

The values that follow come from patent US5126345A, “Bis (hydroxymethyl) cyclobutyl triazolopyrimidines” (E. R. Squibb & Sons, Inc., priority 1991, dated 1992).

Common to all, as to assay type: cell-based
Assay [1] deals with HSV-1 (herpes simplex virus type 1, strain Schooler). The assay is described as follows: HSV-1 antiviral assay, plaque reduction in WI-38 cell culture monolayers. The conditions noted are these: Human alphaherpesvirus 1, 96 h; at least 50% plaque reduction; WI-38 cells; 4 days incubation at 37° C; read-out: ID50 HSV-1. On the procedure: (§1) Assays were performed in cell culture systems to determine the concentrations of compounds that are effective in preventing several kinds of viral infections.
(§2) HSV-1 (herpes simplex virus type 1, strain Schooler), HSV-2 (herpes simplex virus type 2, strain 186), VZV (varicella zoster virus, strain ELLEN), HCMV (human cytomegalovirus, strain AD 169), MuLV (murine leukemia virus, strain CAS), HIV (human immunodeficiency virus, strain HTLV-IIIB).
(§3) HSV-1, HSV-2, HCMV, and VZV antiviral assays: Virus was adsorbed to WI-38 cell culture monolayers in 6 well culture plates (Costar, Cambridge, MA) for 1 hour prior to addition of maintenance medium containing duplicate dilutions of the test compound. Inhibition of plaque development was evaluated on fixed and stained monolayers after 4 days incubation at 37° C. for HSV-1 and HSV-2 and after 6-7 days incubation at 37° C. for HCMV and VZV. ID50 values were determined from the drug concentration which conferred at least a 50% plaque reduction compared to virus controls.

The test system of assay [2] is HSV-2 (herpes simplex virus type 2, strain 186). The assay is described as follows: HSV-2 antiviral assay, plaque reduction in WI-38 cell culture monolayers. To be noted: Human alphaherpesvirus 2, 96 h; at least 50% plaque reduction; WI-38 cells; 4 days incubation at 37° C; read-out: ID50 HSV-2. On the procedure: as §1, §2, §3
The test system of assay [3] is HCMV (human cytomegalovirus, strain AD 169). The experiment in a line: HCMV antiviral assay, plaque reduction in WI-38 cell culture monolayers. As to the method: as §1, §2, §3
Assay [4] has as its system VZV (varicella zoster virus, strain ELLEN). The experiment in a line: VZV antiviral assay, plaque reduction in WI-38 cell culture monolayers. As to the method:
as §1, §2, §3

Assay [5] has as its system MuLV (murine leukemia virus, strain CAS). The assay is described as follows: MuLV antiviral assay, syncytial plaques, SC-1 cells with XC cell overlay. To be noted: SC1, read-out: ID50 MuLV. On the procedure:
as §1, §2
MuLV antiviral assay: Antiviral assays using MuLV were performed with some modification, as described by Rowe et al. and Shannon et al.. SC-1 cells were planted at approximately 2×10^5 cell per well in 6 well plates. After overnight incubation at 37° C., the cell cultures were sensitized with DEAE-Dextran for one hour at 37° C., rinsed and inoculated with MuLV. Cultures were re-fed with growth medium containing different concentrations of the test compound. After three more days at 37° C., cultures were re-fed with fresh medium plus test compounds and incubated at 37° C. for an additional 3 days. Cultures were then washed to remove medium, ultraviolet light irradiated, and planted with approximately 5×10^5 XC cells per well in cell growth medium containing the appropriate concentration of the test compound. […] Finally the cultures were rinsed, stained and syncytial plaques were counted. […]

The mark [6] stands for this setting: Human betaherpesvirus 5, WI-38, read-out: ID50 HCMV.
The mark [7] stands for this setting: Human alphaherpesvirus 3, at least 50% plaque reduction, WI-38 cells, 6-7 days incubation at 37° C, read-out: ID50 VZV.
[8] abbreviates: Human alphaherpesvirus 3, WI-38, read-out: ID50 VZV.

`Nc1nc2c(nnn2[C@H]2C[C@@H](CO)[C@@H]2CO)c(=O)[nH]1` (relative stereo) [(1α,2β,3α)-5-Amino-3-[2,3-bis(hydroxymethyl)cyclobutyl]-3,6-dihydro-7H-1,2,3-triazolo[4,5-d]pyrimidin-7-one]: the IC50 in assay [1] was found to be 7.5 µM; in assay [2], 7.5 µM; in assay [3] (setting [6]) it was 376 µM.

For the compound `Nc1ncnc2c1ncn2[C@H]1C[C@@H](CO)[C@@H]1CO` (relative stereo) [(1α,2β,3α)-3-(6-Amino-9H-purin-9-yl)1,2-cyclobutanedimethanol], the IC50 was 8 µM in assay [1], 4 to 8 µM in assay [2], 0.8 to 2 µM in assay [4] (setting [7]) and 0.8 µM in assay [3] (setting [6]).

Regarding `Nc1nc2c(ncn2[C@H]2C[C@@H](CO)[C@@H]2CO)c(=O)[nH]1` (relative stereo) [(1α,2β,3α)-9-[2,3-Bis(hydroxymethyl)cyclobutyl]guanine], the IC50 was 0.08 to 0.2 µM in assay [1]; 0.04 to 0.08 µM in assay [2]; 0.2 µM in assay [4] (setting [8]); 3.8 µM in assay [3] (setting [6]); 3.8 µM in assay [5].

Turning to `Nc1ccn([C@H]2C[C@@H](CO)[C@@H]2CO)c(=O)n1` (relative stereo) [(1α,2β,3α)-4-Amino-1-[2,3-bis(hydroxymethyl)cyclobutyl]-2(1H)-pyrimidinone], the IC50 in assay [1] was 444 µM; in assay [2] it was 444 µM; in assay [4] (setting [8]) it was 22 µM; in assay [3] (Human betaherpesvirus 5, at least 50% plaque reduction, WI-38 cells, 6-7 days incubation at 37° C, read-out: ID50 HCMV), 22 to 44 µM.

As to `O=c1[nH]c(=O)n([C@H]2C[C@@H](CO)[C@@H]2CO)cc1/C=C/Br` (relative stereo) [[1α(E),2β,3α]-1-[2,3-Bis(hydroxymethyl)cyclobutyl]-5-(2-bromoethenyl)-2,4(1H,3H)pyrimidinedione], the values for the IC50 in assay [1] and in assay [4] (setting [7]) were 10 to 30 µM and 0.03 to 0.06 µM, respectively.

For `O=c1[nH]c(=O)n([C@H]2C[C@@H](CO)[C@@H]2CO)cc1I` (relative stereo) [(1α,2β,3α)-1-[2,3-Bis(hydroxymethyl)cyclobutyl]-5-iodo-2,4(1H,3H)-pyrimidinedione], the IC50 in assay [1] lay in the range of 6 to 14 µM; in assay [4] (setting [7]), 14 to 28 µM.
